Assay results reported in patent publication US11214803B2, “Modulators of YAP1 expression” (Ionis Pharmaceuticals, Inc., priority 2019, dated 2022).
Strand notation (5' to 3'): a small letter for the sugar, then the base; units joined by * are phosphorothioate-linked, units joined directly phosphodiester-linked; [ ] holds rarer units or linkages, { } end groups; capitals alone tell only the bases. k = constrained ethyl (cEt); [5mC] = 5-methylcytosine; d = 2'-deoxy (DNA)

tested on: Yap1 mRNA; test: Antisense inhibition of human Yap1 in A-431 cells by cEt gapmers, single dose (Example 1, RTS4814); type: cell-based; conditions: A-431 cells, 5,000 cells per well, free uptake, 2,000 nM modified oligonucleotide, approx. 48 hours, RTS4814, normalized to RIBOGREEN; Table 3
How it was run: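 Free uptake of 2,000 nM 3-10-3 cEt gapmer (16-mer, full phosphorothioate, 5-methylcytosines) in A-431 cells for ~48 h. Yap1 mRNA quantified by qRT-PCR with set RTS4814, normalized to total RNA (RiboGreen), and expressed as % of untreated control; asterisked values target the amplicon region.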

| Substance | YAP1 (% UTC) |
| --- | --- |
| 715624 (antisense kT*kG*k[5mC]*d[5mC]*dT*dA*dA*dG*dA*dG*dT*dA*dA*kA*kA*kA) [Compound 715624] | 123 |
| 715420 (kG*kA*kT*dT*dT*dA*dA*dG*dA*dA*dG*dT*dA*kT*k[5mC]*kT; antisense) [Compound 715420] | 107 |
| 715555 (kG*kT*kT*dA*dT*dT*d[5mC]*dA*dG*d[5mC]*dA*dG*d[5mC]*kT*kT*kA; antisense) [Compound 715555] | 21 |
| 715513 (kG*k[5mC]*kG*dG*dA*dG*dG*d[5mC]*dG*d[5mC]*dG*d[5mC]*dG*k[5mC]*kA*kT; antisense) [Compound 715513] | 125 |
| 715579 (k[5mC]*kT*kG*dT*d[5mC]*dT*dG*dG*dA*dA*dT*dA*d[5mC]*kA*k[5mC]*kA; antisense) [Compound 715579] | 100 |
| 715450 (antisense kT*kT*kG*dT*dT*d[5mC]*dT*d[5mC]*dA*dA*dT*dT*d[5mC]*k[5mC]*kT*kG) [Compound 715450] | 53 |
| 715480 (antisense kG*kG*kA*dA*dA*d[5mC]*d[5mC]*dA*dT*dT*dA*dT*dT*kA*k[5mC]*kT) [Compound 715480] | 23 |
| 715612 (antisense kT*kA*k[5mC]*dT*dT*dT*dA*dA*dG*d[5mC]*d[5mC]*dA*d[5mC]*kA*kT*kG) [Compound 715612] | 77 |
| 715501 (antisense kA*kA*kA*dA*dG*d[5mC]*d[5mC]*dT*dT*dA*dG*dA*dG*kT*k[5mC]*kA) [Compound 715501] | 28 |
| 715585 (kA*kA*kG*dG*dT*d[5mC]*dT*dG*dG*dA*dA*d[5mC]*dA*kG*kA*kT; antisense) [Compound 715585] | 73 |
| 715519 (kT*kT*k[5mC]*d[5mC]*dA*d[5mC]*dT*d[5mC]*dA*dA*dG*dT*dT*kA*k[5mC]*kA; antisense) [Compound 715519] | 96 |
| 715531 (kA*k[5mC]*kA*dA*d[5mC]*d[5mC]*dT*dG*dG*dT*dT*dT*dG*kT*kT*kT; antisense) [Compound 715531] | 94 |
| 715435 (antisense kG*kG*kT*d[5mC]*dT*dT*dG*dT*dT*d[5mC]*dT*dT*dA*kT*kG*kG) [Compound 715435] | 36 |
| 715546 (kT*kG*kA*d[5mC]*d[5mC]*dA*dA*d[5mC]*dT*dA*d[5mC]*dT*dT*kG*kA*kA; antisense) [Compound 715546] | 59 |
| 715429 (k[5mC]*k[5mC]*kT*dG*dA*dG*dT*d[5mC]*dA*dT*dG*dG*d[5mC]*kT*kT*kG; antisense) [Compound 715429] | 62 |
| 715534 (kT*k[5mC]*k[5mC]*d[5mC]*d[5mC]*dA*dG*dG*dT*d[5mC]*dA*dG*d[5mC]*kA*kT*kG; antisense) [Compound 715534] | 112 |
| 715567 (kG*kG*kT*dA*dG*dG*dA*dT*dA*dA*dA*dT*dG*kA*kA*kT; antisense) [Compound 715567] | 99 |
| 715405 (kT*kG*kA*dA*dG*dA*dA*dG*dG*dA*dG*dT*d[5mC]*kG*kG*kG; antisense) [Compound 715405] | 60 |

same assay, conditions: Table 1; A-431 cells, free uptake, 2,000 nM, approximately 48 hours, RTS4814; Yap1 mRNA relative to untreated control cells

| Substance | YAP1 (% UTC) |
| --- | --- |
| 715439 (antisense kG*kG*kT*dT*d[5mC]*dA*dT*dG*dG*d[5mC]*dA*dA*dA*kA*k[5mC]*kG) [Compound 715439] | 99 |
| 715613 (antisense kA*kT*kT*dA*d[5mC]*dT*dT*dT*dA*dA*dG*d[5mC]*d[5mC]*kA*k[5mC]*kA) [Compound 715613] | 85 |
| 715415 (k[5mC]*kG*kA*dA*d[5mC]*dA*dT*dG*d[5mC]*dT*dG*dT*dG*kG*kA*kG; antisense) [Compound 715415] | 24 |
| 715475 (antisense kA*kG*k[5mC]*dT*dT*dT*d[5mC]*dT*dT*dT*dA*dT*d[5mC]*kT*kA*kG) [Compound 715475] | 103 |
| 715445 (antisense k[5mC]*kA*kT*d[5mC]*d[5mC]*dT*dG*d[5mC]*dT*d[5mC]*d[5mC]*dA*dG*kT*kG*kT) [Compound 715445] | 87 |
| 715460 (antisense kA*kT*k[5mC]*dT*d[5mC]*dG*dA*dG*dA*dG*dT*dG*dA*kT*kA*kG) [Compound 715460] | 114 |
| 715520 (kT*kT*k[5mC]*dT*dT*dT*d[5mC]*d[5mC]*dA*d[5mC]*dT*d[5mC]*dA*kA*kG*kT; antisense) [Compound 715520] | 122 |
| 715625 (antisense kA*kT*kT*dG*d[5mC]*d[5mC]*dT*dA*dA*dG*dA*dG*dT*kA*kA*kA) [Compound 715625] | 99 |
| 715568 (kA*kA*kG*dG*dT*dA*dG*dG*dA*dT*dA*dA*dA*kT*kG*kA; antisense) [Compound 715568] | 116 |
| 715511 (antisense kT*k[5mC]*k[5mC]*dT*dG*dA*d[5mC]*dA*dT*dT*dT*dT*dG*kG*kA*kG) [Compound 715511] | 107 |
| 715454 (antisense kA*kT*kA*dG*dG*dT*dG*d[5mC]*d[5mC]*dA*d[5mC]*dT*dG*kT*kT*kA) [Compound 715454] | 78 |
| 715583 (kG*kG*kG*d[5mC]*d[5mC]*dA*d[5mC]*dA*dA*dA*dA*dT*dA*kA*kA*kA; antisense) [Compound 715583] | 164 |
| 715574 (kT*kA*k[5mC]*d[5mC]*dA*dA*dA*dA*d[5mC]*dG*dA*dG*dG*kG*kT*k[5mC]; antisense) [Compound 715574] | 118 |
| 715406 (k[5mC]*kT*kT*dG*dA*dA*dG*dA*dA*dG*dG*dA*dG*kT*k[5mC]*kG; antisense) [Compound 715406] | 58 |
| 715421 (kG*kT*kG*dA*dT*dT*dT*dA*dA*dG*dA*dA*dG*kT*kA*kT; antisense) [Compound 715421] | 71 |
| 715517 (kG*kG*k[5mC]*d[5mC]*dT*dA*dT*dG*dA*dG*dT*d[5mC]*dA*kA*k[5mC]*k[5mC]; antisense) [Compound 715517] | 109 |

same assay, conditions: Table 2; A-431 cells, free uptake, 2,000 nM, approximately 48 hours, RTS4814; Yap1 mRNA relative to untreated control cells

| Substance | YAP1 (% UTC) |
| --- | --- |
| 715425 (kG*kT*k[5mC]*d[5mC]*dT*dG*d[5mC]*d[5mC]*dA*dT*dG*dT*dT*kG*kT*kT; antisense) [Compound 715425] | 98 |
| 715473 (antisense kT*k[5mC]*kT*dT*dT*dA*dT*d[5mC]*dT*dA*dG*d[5mC]*dT*kT*kG*kG) [Compound 715473] | 32 |
| 715560 (k[5mC]*k[5mC]*k[5mC]*dT*dT*dT*dA*d[5mC]*dA*dA*dA*dA*dA*kT*kA*kG; antisense) [Compound 715560] | 98 |
| 715533 (k[5mC]*k[5mC]*kT*dA*dA*d[5mC]*dA*dA*d[5mC]*d[5mC]*dT*dG*dG*kT*kT*kT; antisense) [Compound 715533] | 97 |
| 715590 (kT*kT*kG*dG*d[5mC]*dA*dG*dA*dG*dA*dT*dA*dA*kA*kA*k[5mC]; antisense) [Compound 715590] | 84 |
| 715593 (antisense kA*kT*kT*dT*d[5mC]*dT*dT*dT*dG*dG*d[5mC]*dA*dG*kA*kG*kA) [Compound 715593] | 60 |
| 715449 (antisense kT*kT*k[5mC]*dT*d[5mC]*dA*dA*dT*dT*d[5mC]*d[5mC]*dT*dG*kA*kG*kA) [Compound 715449] | 124 |
| 715446 (antisense kA*kT*kT*d[5mC]*d[5mC]*dT*dG*dA*dG*dA*d[5mC]*dA*dT*k[5mC]*k[5mC]*k[5mC]) [Compound 715446] | 81 |
| 715620 (antisense kA*kA*kA*dA*dA*dT*dA*dA*dG*dA*d[5mC]*dG*dG*kA*kT*kA) [Compound 715620] | 111 |
| 715566 (kT*kA*kG*dG*dA*dT*dA*dA*dA*dT*dG*dA*dA*kT*kT*kA; antisense) [Compound 715566] | 94 |
| 715410 (kA*kT*k[5mC]*dA*dG*dT*dA*d[5mC]*dT*dG*dG*d[5mC]*d[5mC]*kT*kG*kT; antisense) [Compound 715410] | 61 |
| 715488 (antisense k[5mC]*kT*kA*dT*dT*dA*d[5mC]*dT*dT*d[5mC]*dA*dT*dA*kG*k[5mC]*kT) [Compound 715488] | 66 |
| 715539 (kA*kG*kA*dT*d[5mC]*dT*d[5mC]*dA*d[5mC]*dT*dG*dA*d[5mC]*k[5mC]*kT*kA; antisense) [Compound 715539] | 102 |
| 715452 (antisense kG*kT*k[5mC]*dA*dT*dT*dG*dT*dT*d[5mC]*dT*d[5mC]*dA*kA*kT*kT) [Compound 715452] | 71 |
| 715614 (antisense kA*kA*kA*dT*dT*dA*d[5mC]*dT*dT*dT*dA*dA*dG*k[5mC]*k[5mC]*kA) [Compound 715614] | 110 |
| 715545 (kA*k[5mC]*k[5mC]*dA*dA*d[5mC]*dT*dA*d[5mC]*dT*dT*dG*dA*kA*kG*kA; antisense) [Compound 715545] | 87 |
| 715578 (kT*kG*kG*d[5mC]*dA*dT*dT*d[5mC]*dA*d[5mC]*dA*dG*dA*kG*kT*kT; antisense) [Compound 715578] | 50 |
| 715518 (kT*kT*kT*dG*dG*dG*d[5mC]*dA*dA*dA*dG*dT*dT*k[5mC]*k[5mC]*kT; antisense) [Compound 715518] | 60 |
| 715575 (k[5mC]*k[5mC]*kT*dT*dT*dA*d[5mC]*d[5mC]*dA*dA*dA*dA*d[5mC]*kG*kA*kG; antisense) [Compound 715575] | 134 |
| 715530 (kA*kA*k[5mC]*d[5mC]*dT*dG*dG*dT*dT*dT*dG*dT*dT*kT*k[5mC]*k[5mC]; antisense) [Compound 715530] | 61 |
